Reference: PubChem BioAssay (NCI)
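Growth conditions: 96-well plates. Treatment: test compound, 48 hours, 5 concentrations. Analysis: linear interpolation between bracketing concentrations; unreached endpoints set to highest concentration. At the TGI there is no net growth.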

Columns and labels:
Experiment in all cases: growth of human tumour cells (NCI), 48 h
[1] = tested on: ACHN renal
[2] = tested on: HCT-116 colon
[3] = tested on: HOP-62 NSCLC
[4] = tested on: HT29 colon
[5] = tested on: K-562 leukemia
[6] = tested on: MALME-3M melanoma
[7] = tested on: MOLT-4 leukemia
[8] = tested on: NCI-H460 lung
[9] = tested on: NCI-H522 lung
[10] = tested on: OVCAR-4 ovarian
[11] = tested on: OVCAR-5 ovarian
[12] = tested on: RXF 393 renal
[13] = tested on: SF-268 CNS
[14] = tested on: SF-539 CNS
[15] = tested on: SK-MEL-2 melanoma
[16] = tested on: SK-MEL-5 melanoma
[17] = tested on: TK-10 renal
[18] = tested on: UO-31 renal
[19] = tested on: SR leukemia

SMILES	TGI [1] [µM]	TGI [2] [µM]	TGI [3] [µM]	TGI [4] [µM]	TGI [5] [µM]	TGI [6] [µM]	TGI [7] [µM]	TGI [8] [µM]	TGI [9] [µM]	TGI [10] [µM]	TGI [11] [µM]	TGI [12] [µM]	TGI [13] [µM]	TGI [14] [µM]	TGI [15] [µM]	TGI [16] [µM]	TGI [17] [µM]	TGI [18] [µM]	TGI [19] [µM]
N#CC(C(=O)CCC(=O)Nc1cccc(C(F)(F)F)c1)c1ccccc1 (stereo unspecified)	> 100	> 100	> 100	> 100	> 100	> 100	> 100	> 100	> 100	> 100	> 100	> 100	> 100	> 100	> 100	> 100	> 100	> 100	–
CC(C)(C)OC(=O)N1CC(C)(C)N2C(=O)C3(CCCO3)C12 (stereo unspecified)	> 100	> 100	> 100	> 100	> 100	> 100	> 100	> 100	> 100	> 100	> 100	> 100	> 100	> 100	> 100	> 100	> 100	> 100	–
N#Cc1ccccc1NC(=O)C(=O)C(C(=O)c1ccncc1)C1OC(=O)c2ccccc21 (stereo unspecified)	> 100	> 100	> 100	> 100	> 100	> 100	–	> 100	> 100	> 100	> 100	> 100	> 100	> 100	–	> 100	> 100	> 100	> 100
Cc1cc2c(=O)c(C)n[nH]c2c(C#N)c1C	> 100	> 100	> 100	> 100	–	> 100	> 100	> 100	–	–	> 100	> 100	> 100	> 100	–	–	> 100	> 100	> 100
CC(C)c1cccc(C(C)C)c1NC(=O)C(=O)C1CCC2=C(Sc3ccccc3N2)C1=O (stereo unspecified)	> 100	> 100	> 100	> 100	> 100	> 100	> 100	> 100	–	> 100	> 100	> 100	> 100	76.7	> 100	> 100	> 100	> 100	> 100
N#Cc1ccc(OCCSCCCCCCCCCCSCCOc2ccc(C#N)cc2)cc1	> 100	–	> 100	–	> 100	> 100	> 100	> 100	> 100	–	> 100	> 100	> 100	> 100	> 100	> 100	> 100	> 100	–
CS(=O)(=O)NNS(=O)(=O)c1ccc(F)cc1	> 100	> 100	> 100	> 100	> 100	> 100	> 100	> 100	> 100	> 100	–	> 100	> 100	> 100	> 100	> 100	> 100	> 100	> 100
COC(=O)/C(=N\NC(N)=O)C(C#N)c1ccccc1 (stereo unspecified)	> 100	> 100	> 100	> 100	> 100	> 100	> 100	> 100	> 100	> 100	> 100	> 100	> 100	> 100	> 100	–	> 100	> 100	–
CCc1cccc(C(C)CC)c1NC(=O)C(=O)Cc1nc2ccccc2o1 (stereo unspecified)	> 50	> 50	> 50	> 50	> 50	> 50	> 42	> 50	> 50	> 50	> 50	> 50	> 50	> 50	> 50	> 50	> 50	> 50	–
Oc1ccc(C2Oc3cc(O)cc4c3C2c2cc(O)cc3c2C(c2cc(O)cc5c2C4C(c2ccc(O)cc2)O5)C(c2ccc(O)cc2)O3)cc1 (stereo unspecified)	> 25	> 25	> 25	–	> 25	20.7	> 25	> 25	> 25	10.4	> 25	–	> 25	22.8	12.3	> 25	> 25	> 25	> 25
CC1SC2=NC3=C(c4ccccc4C3=O)C(c3ccccc3Cl)N2C1=O (stereo unspecified)	> 100	> 100	> 100	> 100	> 100	> 100	> 100	> 100	96.3	> 100	> 100	–	> 100	> 100	> 100	> 100	> 100	> 100	–
O=C(CC1(O)C(=O)Nc2ccc([N+](=O)[O-])cc21)c1ccncc1 (stereo unspecified)	> 100	> 100	> 100	> 100	75.1	66.2	70.1	> 100	71.5	40.9	> 100	64.4	> 100	> 100	> 100	–	> 100	> 100	–
CCc1ccc(Cc2ccc(CC)c(NC(=O)C(=O)C3NC(=S)NC3=O)c2CC)c(CC)c1NC(=O)C(=O)C1NC(=S)NC1=O (stereo unspecified)	> 100	> 100	> 100	–	> 100	> 100	> 100	> 100	> 100	> 100	> 100	> 100	> 100	> 100	> 100	> 100	> 100	> 100	–
